Laboratory results taken from PubChem BioAssay (NCI).
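Grown in 96-well plates, cells were treated for 48 hours with each compound at five concentrations. Insufficient inhibition: endpoint recorded as highest concentration tested. TGI: concentration producing complete growth inhibition.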

Legend:
Assay in all cases: NCI-60 cell line screen, 48 h
[1] = tested on: 786-0 renal
[2] = tested on: A498 renal
[3] = tested on: A549 NSCLC
[4] = tested on: ACHN renal
[5] = tested on: BT-549 breast
[6] = tested on: CAKI-1 renal
[7] = tested on: CCRF-CEM leukemia
[8] = tested on: COLO 205 colon
[9] = tested on: EKVX NSCLC
[10] = tested on: HCC-2998 colon
[11] = tested on: HCT-116 colon
[12] = tested on: HCT-15 colon
[13] = tested on: HL-60(TB) leukemia
[14] = tested on: HOP-62 NSCLC
[15] = tested on: HOP-92 NSCLC
[16] = tested on: HS 578T breast
[17] = tested on: HT29 colon
[18] = tested on: IGROV1 ovarian
[19] = tested on: K-562 leukemia
[20] = tested on: KM12 colon
[21] = tested on: LOX IMVI melanoma
[22] = tested on: M14 melanoma
[23] = tested on: MALME-3M melanoma
[24] = tested on: MDA-MB-231 breast
[25] = tested on: MDA-MB-435
[26] = tested on: MDA-N
[27] = tested on: MOLT-4 leukemia
[28] = tested on: NCI-H226 lung
[29] = tested on: NCI-H23 lung
[30] = tested on: NCI-H460 lung
[31] = tested on: NCI-H522 lung
[32] = tested on: NCI/ADR-RES ovarian
[33] = tested on: OVCAR-3 ovarian
[34] = tested on: OVCAR-4 ovarian
[35] = tested on: OVCAR-5 ovarian
[36] = tested on: OVCAR-8 ovarian
[37] = tested on: PC-3 prostate
[38] = tested on: RPMI-8226 leukemia
[39] = tested on: RXF 393 renal
[40] = tested on: SF-268 CNS
[41] = tested on: SF-295 CNS
[42] = tested on: SF-539 CNS
[43] = tested on: SK-MEL-2 melanoma
[44] = tested on: SK-MEL-28 melanoma
[45] = tested on: SK-MEL-5 melanoma
[46] = tested on: SK-OV-3 ovarian
[47] = tested on: SN12C renal
[48] = tested on: SNB-19 CNS
[49] = tested on: SNB-75 CNS
[50] = tested on: SR leukemia
[51] = tested on: SW-620 colon
[52] = tested on: T-47D breast
[53] = tested on: TK-10 renal
[54] = tested on: U251 CNS
[55] = tested on: UACC-257 melanoma
[56] = tested on: UO-31 renal

Molecule `[N-]=[N+]=Nc1c(N2CCOCC2)c(Cl)nc2ccccc12` has a TGI [1] of over 100 µM, a TGI [2] of over 100 µM and a TGI [3] of over 100 µM. The TGI [4] was over 100 µM, the TGI [5] was over 100 µM and the TGI [6] was over 100 µM. It also gave a TGI [7] of over 100 µM, a TGI [8] of over 100 µM and a TGI [9] of over 100 µM. It also gave a TGI [10] of over 100 µM, a TGI [11] of over 100 µM and a TGI [12] of over 100 µM. For the same molecule, the TGI [13] was over 100 µM, the TGI [14] was over 100 µM and the TGI [15] was over 100 µM. It also gave a TGI [16] of over 100 µM, a TGI [17] of 72.9 µM and a TGI [18] of over 100 µM. For the same molecule, the TGI [19] was over 100 µM, the TGI [20] was 88.6 µM and the TGI [21] was over 100 µM. For the same molecule, the TGI [22] was over 100 µM, the TGI [23] was over 100 µM and the TGI [24] was over 100 µM. The TGI [25] was over 100 µM, the TGI [26] was over 100 µM and the TGI [27] was over 100 µM. It also gave a TGI [28] of over 100 µM, a TGI [29] of over 100 µM and a TGI [30] of over 100 µM. It also gave a TGI [31] of over 100 µM, a TGI [32] of over 100 µM and a TGI [33] of over 100 µM. The TGI [34] was over 100 µM, the TGI [35] was over 100 µM and the TGI [36] was over 100 µM. The TGI [37] was over 100 µM, the TGI [38] was over 100 µM and the TGI [39] was over 100 µM. For the same molecule, the TGI [40] was over 100 µM, the TGI [41] was over 100 µM and the TGI [42] was over 100 µM. The TGI [43] was over 100 µM, the TGI [44] was over 100 µM and the TGI [45] was 49.6 µM. The TGI [46] was over 100 µM, the TGI [47] was over 100 µM and the TGI [48] was over 100 µM. The TGI [49] was over 100 µM, the TGI [50] was over 100 µM and the TGI [51] was over 100 µM. It also gave a TGI [52] of over 100 µM, a TGI [53] of over 100 µM and a TGI [54] of over 100 µM. For the same molecule, the TGI [55] was 78.3 µM and the TGI [56] was over 100 µM.
